The target of data set [1] is T1, soybean lipoxygenase (Glycine max, UniProt P08170).
T1 construct: purchased Sigma Aldrich- Merck KGaA, Darmstadt, Germany
T1 sequence (P08170 1-839): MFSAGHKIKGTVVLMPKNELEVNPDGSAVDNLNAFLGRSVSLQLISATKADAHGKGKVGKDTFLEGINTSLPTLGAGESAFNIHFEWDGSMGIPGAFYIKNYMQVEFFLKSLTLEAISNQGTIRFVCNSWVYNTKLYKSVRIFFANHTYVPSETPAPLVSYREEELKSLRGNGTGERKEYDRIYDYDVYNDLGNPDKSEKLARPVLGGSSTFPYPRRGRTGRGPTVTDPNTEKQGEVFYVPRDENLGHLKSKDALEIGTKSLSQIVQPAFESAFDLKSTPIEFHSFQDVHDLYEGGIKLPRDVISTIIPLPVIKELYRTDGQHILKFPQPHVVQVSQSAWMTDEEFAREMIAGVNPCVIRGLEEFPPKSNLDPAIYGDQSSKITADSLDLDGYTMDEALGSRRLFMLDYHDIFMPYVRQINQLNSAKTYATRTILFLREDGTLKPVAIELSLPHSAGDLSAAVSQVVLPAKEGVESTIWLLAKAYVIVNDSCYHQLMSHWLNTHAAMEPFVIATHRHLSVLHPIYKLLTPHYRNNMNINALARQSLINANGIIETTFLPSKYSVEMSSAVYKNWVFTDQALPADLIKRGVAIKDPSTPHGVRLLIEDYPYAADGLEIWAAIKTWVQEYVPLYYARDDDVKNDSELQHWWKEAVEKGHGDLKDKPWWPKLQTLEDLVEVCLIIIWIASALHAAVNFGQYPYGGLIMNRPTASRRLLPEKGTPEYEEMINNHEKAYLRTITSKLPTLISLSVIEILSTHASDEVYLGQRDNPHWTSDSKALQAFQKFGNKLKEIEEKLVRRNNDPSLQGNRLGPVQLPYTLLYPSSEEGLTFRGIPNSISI
In words: Inhibition of soybean lipoxygenase. It counts as biochemical. Particulars: for IC50: cells of the mixed column with μM, read-out: LOX IC50; for inhibition at 100 µM: read-out: LOX % Inhibition 100 μM. An excerpt: Lipoxygenase (LOX) is the key enzyme in the biosynthesis of inflammatory mediators; thus, it is considered a target for inflammatory diseases. Soybean LOX is a plant enzyme that has been used widely as a prototype for studying the functional and structural properties of the homologous family of lipoxygenases, presenting satisfactory homology with the human 5-LOX [42]. Linoleic acid is the most common substrate in plant LOX. […] Lipophilicity is considered one of the most important parameters with regard to LOX inhibitors according to the literature.
In vitro study was performed as reported previously by our group. In this experiment, 10 μL of the tested compound (from the stock solution) were incubated with 100 μL sodium linoleate (diluted in Tris buffer), 200 μL LOX solution (1:9 × 10^−4 w/v in saline) and 690 μL Tris buffer (pH 9.0) at room temperature. The absorbance was measured at 234 nm, where the change of absorbance was recorded due to the formation of 13-hydroperoxy-linoleic acid. […] In order to determine the IC50 values, different concentrations were used.

The mark [2] stands for this setting: 100 μM, cells of the mixed column without μM.

Structures are written as SMILES. Some results are limits rather than exact numbers.

As for `O=c1[nH]c(=S)[nH]c2nc(-c3ccccc3)cc(-c3ccc(Cl)cc3)c12` [Compound 2e, 5-(4-chlorophenyl)-7-phenyl-2-thioxo-2,3-dihydropyrido [2,3-d]pyrimidin-4(1H)-one], the melting point (usually the temperature of the solid-liquid transition) is over 300 °C. For the same compound, the IC50 – broadly, the concentration needed to halve the response being measured – in data set [1] stood at 76 µM. For the compound `O=c1[nH]c(=S)[nH]c2nc(-c3ccc(Cl)cc3)cc(-c3cccs3)c12` [Compound 2d, 7-(4-chlorophenyl)-5-(thiophen-2-yl)-2-thioxo-2,3-dihydropyrido [2,3-d]pyrimidin-4(1H)-one], the melting point was over 300 °C. Besides, the half-inhibitory concentration (IC50) in data set [1] is 70 µM.

`O=c1[nH]c(=S)[nH]c2nc(-c3ccc(Cl)cc3)cc(-c3ccc(Cl)cc3Cl)c12` [Compound 2h, 7-(4-chlorophenyl)-5-(2,4-dichlorophenyl)-2-thioxo-2,3-dihydropyrido [2,3-d]pyrimidin-4(1H)-one] showed a melting point of 274 to 276 °C. The inhibition – broadly, the change of the read-out against control, counted positive when it falls – at 100 µM in data set [1] (setting [2]) came to 27%. On to `O=c1[nH]c(=S)[nH]c2nc(-c3ccc(Cl)cc3)cc(-c3ccc(Cl)cc3)c12` [Compound 2f, 5,7-bis(4-chlorophenyl)-2-thioxo-2,3-dihydropyrido [2,3-d]pyrimidin-4(1H)-one], for which the melting point is over 300 °C. Further, the IC50 in data set [1] is 47.5 µM. `O=C(/C=C/c1ccc(Cl)cc1Cl)c1ccccc1` [Compound 1g, (E)-3-(2,4-dichlorophenyl)-1-phenylprop-2-en-1-one] displayed a melting point of 68 to 70 °C. Also, the IC50 in data set [1] came to 17 µM. `O=c1[nH]c(=S)[nH]c2nc(-c3ccccc3)cc(-c3ccc(Cl)cc3Cl)c12` [Compound 2g, 5-(2,4-dichlorophenyl)-7-phenyl-2-thioxo-2,3-dihydropyrido [2,3-d]pyrimidin-4(1H)-one]: the melting point was over 300 °C. Further, the IC50 in data set [1] stood at 54 µM. For `O=c1[nH]c(=S)[nH]c2nc(-c3ccccc3)cc(-c3ccccc3)c12` [Compound 2a, 5,7-diphenyl-2-thioxo-2,3-dihydropyrido [2,3-d]pyrimidin-4(1H)-one] the same measures were over 300 °C and 42 µM. In the case of `O=C(/C=C/c1ccc(Cl)cc1)c1ccccc1` [Compound 1e, (E)-3-(4-chlorophenyl)-1-phenylprop-2-en-1-one], the IC50 in data set [1] is 55.5 µM. Consider `O=C(/C=C/c1ccccc1)c1ccc(Cl)cc1` [Compound 1b, (E)-1-(4-chlorophenyl)-3-phenylprop-2-en-1-one], for which the inhibition at 100 µM in data set [1] (setting [2]) turned out to be 39%. In turn, `O=c1[nH]c(=S)[nH]c2nc(-c3ccc(Cl)cc3)cc(-c3ccccc3)c12` [Compound 2b, 7-(4-chlorophenyl)-5-phenyl-2-thioxo-2,3-dihydropyrido [2,3-d]pyrimidin-4(1H)-one] gave a melting point of over 300 °C. Also, in data set [1] (setting [2]), the inhibition at 100 µM was 6%.

As for `O=C(/C=C/c1ccc(Cl)cc1Cl)c1ccc(Cl)cc1` [Compound 1h, (E)-1-(4-chlorophenyl)-3-(2,4-dichlorophenyl)prop-2-en-1-one], the “LOX % Inhibition 100 μM” value in data set [1] (setting [2]) was “no”. With `O=C(/C=C/c1ccc(Cl)cc1)c1ccc(Cl)cc1` [Compound 1f, (E)-1,3-bis(4-chlorophenyl)prop-2-en-1-one], the melting point is 160 to 162 °C. In data set [1] (setting [2]), the inhibition at 100 µM was 4%. Turning to `O=c1[nH]c(=S)[nH]c2nc(-c3ccccc3)cc(-c3cccs3)c12` [Compound 2c, 7-phenyl-5-(thiophen-2-yl)-2-thioxo-2,3-dihydropyrido [2,3-d]pyrimidin-4(1H)-one], the melting point was in the range of 260 to 262 °C. Also, the IC50 in data set [1] was determined as 68.5 µM. Take `O=C(/C=C/c1cccs1)c1ccc(Cl)cc1` [Compound 1d, (E)-1-(4-chlorophenyl)-3-(thiophen-2-yl)prop-2-en-1-one]: the IC50 in data set [1] was determined as 72.5 µM.

As to `O=C(/C=C/c1ccccc1)c1ccccc1` [Compound 1a, (E)-1,3-diphenylprop-2-en-1-one], the inhibition at 100 µM in data set [1] (setting [2]) stood at 26%.

These data come from paper PMC10180197, “Novel Pyrimidine Derivatives as Antioxidant and Anticancer Agents: Design, Synthesis and Molecular Modeling Studies” (Molecules, 2023).
